This note sets out measurements from BindingDB's records for doi:10.1021/jm0613469 (Uppsala University, 2007).

Residues, ends and D or L forms follow the SMILES beside them.

In the experiment the target is Type-2 angiotensin II receptor (Sus scrofa). Nature of the experiment: Displacement of [125I]Ang2 from AT2 receptor in pig uterus myometrial membrane.
`N[C@@H](Cc1cnc[nH]1)C(=O)N1CCC[C@H]1C(=O)N[C@@H](Cc1ccccc1)C(=O)O` [(S)-2-((S)-1-((S)-2-amino-3-(1H-imidazol-5-yl)propanoyl)pyrrolidine-2-carboxamido)-3-phenylpropanoic acid] (H-His-Pro-Phe-OH) displayed a Ki greater than 10 µM.

In turn, `CC(=O)N[C@@H](Cc1cnc[nH]1)C(=O)N1CCC[C@H]1C(=O)N[C@@H](Cc1ccccc1)C(=O)O` [(S)-2-((S)-1-((S)-2-acetamido-3-(1H-imidazol-5-yl)propanoyl)pyrrolidine-2-carboxamido)-3-phenylpropanoic acid] (Ac-His-Pro-Phe-OH) returned a Ki greater than 10 µM. The same measure for `CC[C@@H](C)[C@H](NC(=O)[C@@H]1CCCN1C(=O)c1cccc(Cc2cnc[nH]2)c1)C(=O)O` [(2S,3R)-2-((S)-1-(3-((1H-imidazol-5-yl)methyl)benzoyl)pyrrolidine-2-carboxamido)-3-methylpentanoic acid]: greater than 10 µM; for `CC[C@H](C)[C@H](NC(=O)[C@@H]1CCCN1C(=O)[C@@H](N)Cc1cnc[nH]1)C(=O)O` [(2S,3R)-2-((S)-1-((S)-2-amino-3-(1H-imidazol-5-yl)propanoyl)pyrrolidine-2-carboxamido)-3-methylpentanoic acid] (H-His-Pro-Ile-OH): greater than 10 µM; for `O=C(O)[C@H](Cc1ccccc1)NC(=O)[C@@H]1CCCN1C(=O)c1cccc(Cc2cnc[nH]2)c1` [(S)-2-((S)-1-(3-((1H-imidazol-5-yl)methyl)benzoyl)pyrrolidine-2-carboxamido)-3-phenylpropanoic acid]: greater than 10 µM. With `CC[C@@H](C)[C@H](NC(=O)c1cccc(Cn2ccnc2)c1)C(=O)O` [(2S,3R)-2-(3-((1H-imidazol-1-yl)methyl)benzamido)-3-methylpentanoic acid], the Ki is 0.0166 µM.

Compound `CC[C@@H](C)[C@H](NC(=O)[C@@H]1CCCN1C(=O)c1cccc(Cn2ccnc2)c1)C(=O)O` [(2S,3R)-2-((S)-1-(3-((1H-imidazol-1-yl)methyl)benzoyl)pyrrolidine-2-carboxamido)-3-methylpentanoic acid] yielded a Ki greater than 10 µM.

`O=C(N[C@@H](Cc1ccccc1)C(=O)O)c1cccc(Cn2ccnc2)c1` [(S)-2-(3-((1H-imidazol-1-yl)methyl)benzamido)-3-phenylpropanoic acid] showed a Ki of 0.0375 µM. Next, `O=C(O)[C@H](Cc1ccccc1)NC(=O)[C@@H]1CCCN1C(=O)c1cccc(Cn2ccnc2)c1` [(S)-2-((S)-1-(3-((1H-imidazol-1-yl)methyl)benzoyl)pyrrolidine-2-carboxamido)-3-phenylpropanoic acid]: greater than 10 µM.
